Data: patent US20170340629A1 (AB SCIENCE, priority 2014, published 2017)
Structures can show the parent of a compound that is named as a salt. Where two headings read alike, the source gives them in different places.

What was measured:
BT474 = test: WST-1 proliferation/viability assay, BT474; assay type: cell-based, human; conditions: 72 h, 1% FCS
Description: (§1) Breast cancer cell lines (generous gift from Dr. […], UMR 599 INSERM, Marseille, France) were cultured as monolayers in RPMI 1640 medium, containing L-glutamine supplemented with 100 U/mL penicillin and 100 μg/mL streptomycin, and 10% v/v heat-inactivated fetal calf serum (AbCys Lot S02823S1800) under standard culture conditions (5% CO2, 95% air in humidified chamber at 37° C.). During proliferation assay, all cells were grown in medium containing 1% FCS. Colorimetric cell proliferation and viability assay (reagent WST-1 purchased from Roche cat N^o 1644807)-Cells were washed once and resuspended in RPMI 1% FCS. Cells were plated at 1×10^4/50 μl per well of a 96 well plate. […] Treatment was started by the addition of 50 μl of a 2× concentrated drug solution to a final volume of 100 μl. […] After incubating for 72 hours at 37° C., 10 μl of a 1⁄2 dilution of WST-1 reagent was added to each well and the plates were returned to the incubator for an additional 4 hours. The absorbance of the samples was measured at 490 nm using an EL800 Universal microplate reader (Bio-Tek Instruments Inc.). A background control without cells was used as a blank. […] Each sample was done in duplicate, the absorbance values were transferred to an excel file, the average and standard deviation of the duplicates were calculated and expressed as a percentage of the proliferation obtained in absence of treatment. […]

MDAMB134 = test: WST-1 proliferation/viability assay, MDAMB134; assay type: cell-based, human; conditions: 72 h, 1% FCS
Description: (§2) Breast cancer cell lines (generous gift from Dr. […], UMR 599 INSERM, Marseille, France) were cultured as monolayers in RPMI 1640 medium, containing L-glutamine supplemented with 100 U/mL penicillin and 100 μg/mL streptomycin, and 10% v/v heat-inactivated fetal calf serum (AbCys Lot S02823S1800) under standard culture conditions (5% CO2, 95% air in humidified chamber at 37° C.). During proliferation assay, all cells were grown in medium containing 1% FCS. Colorimetric cell proliferation and viability assay (reagent WST-1 purchased from Roche cat N^o 1644807)-Cells were washed once and resuspended in RPMI 1% FCS. Cells were plated at 1×10^4/50 μl per well of a 96 well plate. […] Treatment was started by the addition of 50 μl of a 2× concentrated drug solution to a final volume of 100 μl. […] After incubating for 72 hours at 37° C., 10 μl of a 1⁄2 dilution of WST-1 reagent was added to each well and the plates were returned to the incubator for an additional 4 hours. The absorbance of the samples was measured at 490 nm using an EL800 Universal microplate reader (Bio-Tek Instruments Inc.). A background control without cells was used as a blank. The positive control of the assay corresponds to the cell proliferation obtained in the absence of drug treatment (100% proliferation). Each sample was done in duplicate, the absorbance values were transferred to an excel file, the average and standard deviation of the duplicates were calculated and expressed as a percentage of the proliferation obtained in absence of treatment. The results presented are representative of a minimum of four experiments.

MDAMB231 = test: WST-1 proliferation/viability assay, MDAMB231; assay type: cell-based, human; conditions: 72 h, 1% FCS
Description: as §2

MCF-7 = test: WST-1 proliferation/viability assay, MCF-7; assay type: cell-based; conditions: Homo sapiens, 72 h, 1% FCS
Description: as §1

[1] = system: TNBC (metastatic or locally advanced); conditions: cisplatin alone (N = 58); Baselga et al. 2013; cited from earlier work
HCC1937 = test: WST-1 proliferation/viability assay, HCC1937; assay type: cell-based; conditions: Homo sapiens, doxorubicin single agent, 72 h, 1% FCS
Description: as §1

BT20 = test: WST-1 proliferation/viability assay, BT20; assay type: cell-based; conditions: Homo sapiens, BT-20, gemcitabine single agent, 72 h, 1% FCS
Description: as §1

Mia Paca-2 cells = test: WST-1 proliferation/survival assay, gemcitabine-resistant Mia Paca-2; assay type: cell-based; conditions: for IC50: Homo sapiens, 72 hours, 1% FCS, read-out: IC50 single agent; for sensitization of cells to gemcitabine by TKI pre-incubation: TKI 5 or 10 μM overnight before gemcitabine, FIG. 2; for cell proliferation, single agent: TKI 10 μM
Description: The antiproliferative activity of each TKI and gemcitabine is assessed using a WST-1 proliferation/survival assay in growth medium containing 1% fetal calf serum (FCS). Treatment is started with the addition of the relevant drug. For combination treatment (TKI plus gemcitabine), cells are re-suspended in medium (1% FCS) containing 0, 5 or 10 μM of the relevant TKI and incubated overnight before gemcitabine addition. After 72 hours, WST-1 reagent is added and incubated with the cells for 4 hours before absorbance measurement at 450 nm in an EL800 Universal Microplate Reader (Bio-Tek Instruments Inc.). Media alone is used as a blank and proliferation in the absence of drug served as a positive control. A TKI sensitization index is calculated as the ratio of the IC50 of gemcitabine against the IC50 of the drug combination.

[2] = system: relapsed or refractory inflammatory breast cancer; conditions: lapatinib 1500 mg/day; 126 patients; Kaufman et al. 2009; cited from earlier work
breast cancer cell lines = test: WST-1 proliferation assay, masitinib mesilate single agent; assay type: cell-based; conditions: Homo sapiens, 1% FCS
Description: Breast cancer cell lines (generous gift from Dr. […], UMR 599 INSERM, Marseille, France) were cultured as monolayers in RPMI 1640 medium, containing L-glutamine supplemented with 100 U/mL penicillin and 100 μg/mL streptomycin, and 10% v/v heat-inactivated fetal calf serum (AbCys Lot S02823S1800) under standard culture conditions (5% CO2, 95% air in humidified chamber at 37° C.). During proliferation assay, all cells were grown in medium containing 1% FCS. Colorimetric cell proliferation and viability assay (reagent WST-1 purchased from Roche cat N^o 1644807)-Cells were washed once and resuspended in RPMI 1% FCS. Cells were plated at 1×10^4/50 μl per well of a 96 well plate. […] Treatment was started by the addition of 50 μl of a 2× concentrated drug solution to a final volume of 100 μl. […] The absorbance of the samples was measured at 490 nm using an EL800 Universal microplate reader (Bio-Tek Instruments Inc.). […] Each sample was done in duplicate, the absorbance values were transferred to an excel file, the average and standard deviation of the duplicates were calculated and expressed as a percentage of the proliferation obtained in absence of treatment. […] Breast cancer cell lines were first analyzed for their sensitivity to masitinib mesilate when used as single agent.

[3] = system: CMT-U27 canine mammary carcinoma cell line; test: MTT proliferation assay and combination index, CMT-U27; assay type: cell-based; conditions: for IC50: single agent, read-out: IC50 growth inhibitory activity
Description: (§3) Two canine mammary tumor (CMT) cell lines were evaluated, CMT-U27 and CMT-U309. CMT-U27 is a highly metastatic canine mammary carcinoma cell line while CMT-U309 is a non-metastatic spindle-cell cell line. Cell lines were maintained in Dulbecco's modified Eagles Medium-F12 supplemented with 10% fetal bovine serum and antimicrobials (penicillin [100 U/mL] and streptomycin [0.1 mg/mL]). Cell lines were maintained in a humidified atmosphere of 5% carbon dioxide at 37° C.
(§4) Solutions were prepared newly prepared from the stock solution for each experiment.
(§5) Cells were seeded at a density of 1.0×10^4 cells/well (final volume, 100 μL/well) in three replicates. […] At the end of treatment, 10 μl of MTT solution (5 mg/ml in PBS) was added to each well. The plates were incubated for 4 hours in a humidified atmosphere at 37° C. with 5% CO2. After that incubation, cell proliferation was assessed by use of a commercial cell proliferation MTT [3-(4,5-dimethylthiazol-2-yl)-2,5-diphenyltrazolium bromide] kit. All samples were assayed in triplicate, and the mean for each experiment was calculated. The effect of each compound on growth inhibition was assessed as percent cell viability where vehicle-treated cells were taken as 100% viable. Cell proliferation was expressed as a percentage of the control wells by use of the following equation: (absorbance of sample wells/absorbance of control wells)×100. The mean of triplicate experiments for each dose was used to calculate IC50 as determined by CalcuSyn software.

[4] = system: CMT-U309 canine mammary tumor cell line; test: MTT proliferation assay and combination index, CMT-U309; conditions: for Viability (%): 72 hours incubation, doses at single-agent IC50 concentrations; for IC50: single agent
Description: as §3, §4, §5

[5] = system: metastatic or locally advanced breast cancer (except triple negative); conditions: patients resistant to at least one first-line chemotherapy; literature (Miller 2005; Brodowicz 2000); cited from earlier work
[6] = carboplatin single agent, read-out: IC50 CPT
[7] = Canis lupus familiaris, 24 h, read-out: IC50 growth inhibitory activity, CMT-U309, 24 h
[8] = Canis lupus familiaris, 48 h, read-out: IC50 growth inhibitory activity, CMT-U309, 48 h
[9] = Canis lupus familiaris, 72 h, read-out: IC50 growth inhibitory activity, CMT-U309, 72 h

## N.N.O=C([O-])C1(C(=O)[O-])CCC1.[Pt+2] [CPT, carboplatin]
BT474; [6]
  IC50: > 100 µM
MDAMB134; [6]
  IC50: > 100 µM
MDAMB231; [6]
  IC50: > 100 µM

## CCc1c2c(nc3ccc(OC(=O)N4CCC(N5CCCCC5)CC4)cc13)-c1cc3c(c(=O)n1C2)COC(=O)[C@]3(O)CC [CPT-11, irinotecan]
MDAMB134; Homo sapiens, irinotecan single agent, read-out: IC50 CPT-11
  IC50: 30 µM
MDAMB231; Homo sapiens, MDA-MB-231, irinotecan single agent, read-out: IC50 CPT-11
  IC50: 30 µM
MCF-7; MCF7, irinotecan single agent, read-out: IC50 CPT-11
  IC50: 100 µM

## N.N.[Cl][Pt][Cl] [Cisplatin, cisplatin]
[1]
  Median OS (months): 9.4 months

## COc1cccc2c1C(=O)c1c(O)c3c(c(O)c1C2=O)C[C@@](O)(C(=O)CO)C[C@@H]3O[C@H]1C[C@H](N)[C@H](O)[C@H](C)O1 [DOX, doxorubicin]
MDAMB134; Homo sapiens, doxorubicin single agent, read-out: IC50 DOX
  IC50: 1 µM
MDAMB231; Homo sapiens, MDA-MB-231, doxorubicin single agent, read-out: IC50 DOX
  IC50: 1 µM
HCC1937
  IC50: 1 µM
MCF-7; MCF7, doxorubicin single agent, read-out: IC50 DOX
  IC50: 1 µM

## Nc1ccn([C@@H]2O[C@H](CO)[C@@H](O)C2(F)F)c(=O)n1 [GCB, 2′,2′,-dofluoro-2′,-deoxycytidine]
BT20
  IC50: 50 µM
BT474; Homo sapiens, BT-474, gemcitabine single agent, read-out: IC50 GCB
  IC50: 100 µM
MDAMB134; Homo sapiens, gemcitabine single agent, read-out: IC50 GCB
  IC50: 100 µM
MDAMB231; Homo sapiens, MDA-MB-231, gemcitabine single agent, read-out: IC50 GCB
  IC50: 100 µM
Mia Paca-2 cells
  IC50: > 10 µM

## CS(=O)(=O)CCNCc1ccc(-c2ccc3ncnc(Nc4ccc(OCc5cccc(F)c5)c(Cl)c4)c3c2)o1 [Lapatinib, lapatinib]
[2]
  Median overall survival: 11.2 months

## Cc1ccc(NC(=O)c2ccc(CN3CCN(C)CC3)cc2)cc1Nc1nc(-c2cccnc2)cs1 [Masitinib mesilate]
Breast cancer cell lines
  IC50: > 6 µM

## Cc1ccc(NC(=O)c2ccc(CN3CCN(C)CC3)cc2)cc1Nc1nc(-c2cccnc2)cs1 [Masitinib, 4-(4-methylpiperazin-1-ylmethyl)-N-[4-methyl-3-(4-pyridin-3ylthiazol-2-ylamino)phenyl]benzamide]
[3]; 72 h
  IC50: 7.5 µM
[3]; 72 hours incubation, doses at single-agent IC50 concentrations
  Viability (%): 77.3%
[3]; Canis lupus familiaris, 24 h
  IC50: 9.13 µM
[3]; Canis lupus familiaris, 48 h
  IC50: 7.61 µM
[3]; Canis lupus familiaris, 72 h
  IC50: 7.5 µM
[4]; CMT-U309
  Viability (%): 66.0%
[4]; [7]
  IC50: 15 µM
[4]; [8]
  IC50: 8.87 µM
[4]; [9]
  IC50: 8.5 µM
[4]; read-out: IC50 growth inhibitory activity, CMT-U309, 72 h
  IC50: 8.54 µM
Mia Paca-2 cells
  IC50: 5 to 10 µM
  sensitization of cells to gemcitabine by TKI pre-incubation: significantly sensitized
Mia Paca-2 cells; masitinib concentration of 10 μM, FIG. 1
  cells remaining resistant: more than 50%

## O=C1c2c(O)ccc(O)c2C(=O)c2c(NCCNCCO)ccc(NCCNCCO)c21 [Mitoxantrone, Mitoxantrone dihydrochloride]
[3]; 72 h, listed as Mixoxantrone, dihydrochloride
  IC50: 0.219 µM
[3]; Canis lupus familiaris, 24 h
  IC50: 3.09 µM
[3]; Canis lupus familiaris, 48 h
  IC50: 1.11 µM
[3]; Canis lupus familiaris, 72 h
  IC50: 0.22 µM
[4]; CMT-U309
  Viability (%): 56.8%
[4]; [7]
  IC50: 2.77 µM
[4]; [8]
  IC50: 1 µM
[4]; [9]
  IC50: 0.75 µM
[4]; read-out: IC50 growth inhibitory activity, CMT-U309, 72 h, dihydrochloride
  IC50: 0.751 µM

## CCCCCOC(=O)Nc1nc(=O)n([C@@H]2O[C@H](C)[C@@H](O)[C@H]2O)cc1F [capecitabine]
[5]
  Median OS (months), benchmark single agent (L2): 14.5 months

## Cc1nc(Nc2ncc(C(=O)Nc3c(C)cccc3Cl)s2)cc(N2CCN(CCO)CC2)n1 [dasatinib]
Mia Paca-2 cells; FIG. 1
  cell proliferation, single agent: affected by a similar extent
Mia Paca-2 cells
  sensitization of cells to gemcitabine by TKI pre-incubation: does not result in an increased response
Mia Paca-2 cells; concentrations superior to 0.1 μM
  cell proliferation at low concentrations: partial inhibition

## Cc1ccc(NC(=O)c2ccc(CN3CCN(C)CC3)cc2)cc1Nc1nccc(-c2cccnc2)n1 [imatinib]
Mia Paca-2 cells; FIG. 1
  cell proliferation, single agent: only weakly inhibited
Mia Paca-2 cells
  sensitization of cells to gemcitabine by TKI pre-incubation: does not result in an increased response
